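Step 1: Grow cells in 96-well plates. Step 2: Expose to compound for 48 hours at 5 concentrations. Step 3: Interpolate endpoints linearly; if unreached, use highest concentration. GI50 is the concentration that inhibits growth by half.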 Calls of active or inactive are those of the source. No stated cut-off is given here; in the data, active = GI50 up to about 1.1 µM and inactive = higher.
Columns and labels:
Assay in all cases: NCI anticancer screen, dose series, 48 h
[1] = tested on: 786-0
[2] = tested on: A498
[3] = tested on: A549
[4] = tested on: ACHN
[5] = tested on: CAKI-1
[6] = tested on: COLO 205
[7] = tested on: DU-145
[8] = tested on: EKVX
[9] = tested on: HCC 2998
[10] = tested on: HCT-116
[11] = tested on: HCT-15
[12] = tested on: HL-60
[13] = tested on: HOP-62
[14] = tested on: HOP-92
[15] = tested on: HT-29
[16] = tested on: Hs-578T
[17] = tested on: IGROV-1
[18] = tested on: K562
[19] = tested on: KM12
[20] = tested on: LOX IMVI
[21] = tested on: M14
[22] = tested on: MCF7
[23] = tested on: MDA-MB-231
[24] = tested on: MDA-MB-435
[25] = tested on: MOLT-4
[26] = tested on: Malme-3M
[27] = tested on: NCI-H226
[28] = tested on: NCI-H23
[29] = tested on: NCI-H460
[30] = tested on: NCI-H522
[31] = tested on: NCI/ADR-RES
[32] = tested on: OVCAR-3
[33] = tested on: OVCAR-4
[34] = tested on: OVCAR-5
[35] = tested on: OVCAR-8
[36] = tested on: PC-3
[37] = tested on: RPMI-8226
[38] = tested on: RXF 393
[39] = tested on: SF-268
[40] = tested on: SF-295
[41] = tested on: SF-539
[42] = tested on: SK-MEL-28
[43] = tested on: SK-MEL-2
[44] = tested on: SK-MEL-5
[45] = tested on: SK-OV-3
[46] = tested on: SNB-19
[47] = tested on: SNB-75
[48] = tested on: SR
[49] = tested on: SW-620
[50] = tested on: TK-10
[51] = tested on: U-251
[52] = tested on: UACC-62
[53] = tested on: UO-31
[54] = tested on: MDA-N
[55] = tested on: BT-549
[56] = tested on: CCRF-CEM
[57] = tested on: SN12C
[58] = tested on: UACC-257

Question: Which GI50 [1] does the source give for `Cc1ccc(S(=O)(=O)NC(=O)NCCc2c[nH]cn2)cc1` here?
Answer: > 100 µM (inactive)

Question: What about the GI50 [2] of the same compound?
Answer: > 100 µM (inactive)

Question: What about the GI50 [3] of the same compound?
Answer: > 100 µM (inactive)

Question: And the GI50 [4]?
Answer: > 100 µM (inactive)

Question: And the GI50 [5]?
Answer: > 100 µM (inactive)

Question: And the GI50 [6]?
Answer: > 100 µM (inactive)

Question: What about the GI50 [7] of the same compound?
Answer: > 100 µM (inactive)

Question: And the GI50 [8]?
Answer: > 100 µM (inactive)

Question: And the GI50 [9]?
Answer: > 100 µM (inactive)

Question: What about the GI50 [10] of the same compound?
Answer: > 100 µM (inactive)

Question: What about the GI50 [11] of the same compound?
Answer: > 100 µM

Question: And the GI50 [12]?
Answer: > 100 µM (inactive)

Question: What about the GI50 [13] of the same compound?
Answer: > 100 µM (inactive)

Question: And the GI50 [14]?
Answer: > 100 µM (inactive)

Question: And the GI50 [15]?
Answer: > 100 µM (inactive)

Question: And the GI50 [16]?
Answer: > 100 µM (inactive)

Question: What about the GI50 [17] of the same compound?
Answer: > 100 µM (inactive)

Question: And the GI50 [18]?
Answer: > 100 µM (inactive)

Question: What about the GI50 [19] of the same compound?
Answer: > 100 µM (inactive)

Question: What about the GI50 [20] of the same compound?
Answer: > 100 µM (inactive)

Question: And the GI50 [21]?
Answer: > 100 µM (inactive)

Question: What about the GI50 [22] of the same compound?
Answer: > 100 µM (inactive)

Question: And the GI50 [23]?
Answer: > 100 µM (inactive)

Question: What about the GI50 [24] of the same compound?
Answer: > 100 µM (inactive)

Question: And the GI50 [25]?
Answer: > 100 µM (inactive)

Question: What about the GI50 [26] of the same compound?
Answer: > 100 µM (inactive)

Question: And the GI50 [27]?
Answer: > 100 µM (inactive)

Question: And the GI50 [28]?
Answer: > 100 µM (inactive)

Question: What about the GI50 [29] of the same compound?
Answer: > 100 µM (inactive)

Question: And the GI50 [30]?
Answer: > 100 µM (inactive)

Question: And the GI50 [31]?
Answer: > 100 µM (inactive)

Question: And the GI50 [32]?
Answer: > 100 µM (inactive)

Question: What about the GI50 [33] of the same compound?
Answer: > 100 µM (inactive)

Question: And the GI50 [34]?
Answer: > 100 µM (inactive)

Question: What about the GI50 [35] of the same compound?
Answer: > 100 µM (inactive)

Question: What about the GI50 [36] of the same compound?
Answer: > 100 µM (inactive)

Question: And the GI50 [37]?
Answer: > 100 µM (inactive)

Question: And the GI50 [38]?
Answer: > 100 µM (inactive)

Question: And the GI50 [39]?
Answer: > 100 µM (inactive)

Question: And the GI50 [40]?
Answer: > 100 µM (inactive)

Question: And the GI50 [41]?
Answer: > 100 µM (inactive)

Question: And the GI50 [42]?
Answer: > 100 µM (inactive)

Question: And the GI50 [43]?
Answer: > 100 µM (inactive)

Question: And the GI50 [44]?
Answer: > 100 µM (inactive)

Question: What about the GI50 [45] of the same compound?
Answer: > 100 µM (inactive)

Question: And the GI50 [46]?
Answer: > 100 µM (inactive)

Question: What about the GI50 [47] of the same compound?
Answer: > 100 µM (inactive)

Question: What about the GI50 [48] of the same compound?
Answer: > 100 µM (inactive)

Question: What about the GI50 [49] of the same compound?
Answer: > 100 µM (inactive)

Question: What about the GI50 [50] of the same compound?
Answer: > 100 µM (inactive)

Question: What about the GI50 [51] of the same compound?
Answer: > 100 µM (inactive)

Question: What about the GI50 [52] of the same compound?
Answer: > 100 µM (inactive)

Question: What about the GI50 [53] of the same compound?
Answer: > 100 µM (inactive)

Question: `O=S(=O)(O)c1ccc2c(/N=N/c3ccccc3)c(O)ccc2c1` was tested. Which GI50 [3] did it give?
Answer: > 100 µM (inactive)

Question: What about the GI50 [4] of the same compound?
Answer: > 100 µM (inactive)

Question: And the GI50 [13]?
Answer: > 100 µM (inactive)

Question: And the GI50 [15]?
Answer: > 100 µM (inactive)

Question: What about the GI50 [16] of the same compound?
Answer: > 100 µM (inactive)

Question: What about the GI50 [18] of the same compound?
Answer: > 100 µM (inactive)

Question: And the GI50 [20]?
Answer: > 100 µM (inactive)

Question: And the GI50 [23]?
Answer: > 100 µM (inactive)

Question: And the GI50 [54]?
Answer: > 100 µM (inactive)

Question: And the GI50 [26]?
Answer: > 100 µM (inactive)

Question: And the GI50 [27]?
Answer: > 100 µM (inactive)

Question: And the GI50 [28]?
Answer: > 100 µM (inactive)

Question: And the GI50 [30]?
Answer: > 100 µM (inactive)

Question: And the GI50 [31]?
Answer: > 100 µM (inactive)

Question: And the GI50 [33]?
Answer: > 100 µM (inactive)

Question: What about the GI50 [36] of the same compound?
Answer: > 100 µM (inactive)

Question: And the GI50 [37]?
Answer: > 100 µM (inactive)

Question: And the GI50 [39]?
Answer: > 100 µM (inactive)

Question: And the GI50 [40]?
Answer: > 100 µM (inactive)

Question: What about the GI50 [50] of the same compound?
Answer: > 100 µM (inactive)

Question: And the GI50 [52]?
Answer: > 100 µM (inactive)

Question: For `[N-]=[N+]=C(C(=O)N1CCCC1=O)S(=O)(=O)c1ccccc1`, which GI50 [1] is on record?
Answer: 97.9 µM (inactive)

Question: What about the GI50 [3] of the same compound?
Answer: > 100 µM (inactive)

Question: What about the GI50 [4] of the same compound?
Answer: > 100 µM (inactive)

Question: And the GI50 [55]?
Answer: > 100 µM (inactive)

Question: And the GI50 [56]?
Answer: 80.7 µM (inactive)

Question: And the GI50 [6]?
Answer: > 100 µM (inactive)

Question: And the GI50 [7]?
Answer: > 100 µM (inactive)

Question: And the GI50 [8]?
Answer: > 100 µM (inactive)

Question: What about the GI50 [9] of the same compound?
Answer: > 100 µM (inactive)

Question: What about the GI50 [10] of the same compound?
Answer: 80.4 µM (inactive)

Question: And the GI50 [11]?
Answer: 51.9 µM

Question: What about the GI50 [12] of the same compound?
Answer: 55.1 µM (inactive)

Question: And the GI50 [13]?
Answer: 58.6 µM (inactive)

Question: What about the GI50 [15] of the same compound?
Answer: > 10 µM (inactive)

Question: What about the GI50 [16] of the same compound?
Answer: 29.4 µM (inactive)

Question: What about the GI50 [17] of the same compound?
Answer: > 100 µM (inactive)

Question: And the GI50 [18]?
Answer: 69.5 µM (inactive)

Question: And the GI50 [19]?
Answer: > 100 µM (inactive)

Question: What about the GI50 [20] of the same compound?
Answer: 42.9 µM (inactive)

Question: And the GI50 [21]?
Answer: 91.2 µM (inactive)

Question: And the GI50 [22]?
Answer: 32.7 µM (inactive)

Question: What about the GI50 [23] of the same compound?
Answer: > 100 µM (inactive)

Question: What about the GI50 [24] of the same compound?
Answer: 77.8 µM (inactive)

Question: What about the GI50 [54] of the same compound?
Answer: 44 µM (inactive)

Question: What about the GI50 [25] of the same compound?
Answer: 50.2 µM (inactive)

Question: What about the GI50 [26] of the same compound?
Answer: 28.3 µM (inactive)

Question: And the GI50 [28]?
Answer: 72.9 µM (inactive)

Question: And the GI50 [29]?
Answer: 39 µM (inactive)

Question: And the GI50 [30]?
Answer: 30.9 µM (inactive)

Question: And the GI50 [31]?
Answer: > 100 µM (inactive)

Question: What about the GI50 [32] of the same compound?
Answer: 76 µM (inactive)

Question: What about the GI50 [35] of the same compound?
Answer: > 100 µM (inactive)

Question: And the GI50 [36]?
Answer: > 100 µM (inactive)

Question: What about the GI50 [37] of the same compound?
Answer: 48.3 µM (inactive)

Question: And the GI50 [38]?
Answer: 70.6 µM (inactive)

Question: And the GI50 [39]?
Answer: > 100 µM (inactive)

Question: And the GI50 [40]?
Answer: > 100 µM (inactive)

Question: What about the GI50 [41] of the same compound?
Answer: 98.6 µM (inactive)

Question: And the GI50 [42]?
Answer: 48.5 µM (inactive)

Question: And the GI50 [43]?
Answer: 62.5 µM (inactive)

Question: And the GI50 [44]?
Answer: 98.9 µM (inactive)

Question: And the GI50 [57]?
Answer: > 100 µM (inactive)

Question: And the GI50 [46]?
Answer: > 100 µM (inactive)

Question: And the GI50 [47]?
Answer: 87.7 µM (inactive)

Question: What about the GI50 [48] of the same compound?
Answer: 87.7 µM (inactive)

Question: What about the GI50 [49] of the same compound?
Answer: > 100 µM (inactive)

Question: What about the GI50 [50] of the same compound?
Answer: > 100 µM (inactive)

Question: And the GI50 [51]?
Answer: > 100 µM (inactive)

Question: And the GI50 [58]?
Answer: > 100 µM (inactive)

Question: What about the GI50 [52] of the same compound?
Answer: 70.6 µM (inactive)

Question: And the GI50 [53]?
Answer: > 100 µM (inactive)
